Values quoted from earlier work in US10590381B2, “Composition for collecting and preserving placental stem cells and methods of using the composition” (Celularity, Inc., priority 2005, dated 2020).

What was measured:
[1] = Form A: among anhydrous polymorphs; Form E: in aqueous solvent systems
[2] = for hygroscopicity: solid polymorphic form; for conversion at higher relative humidities: stressed at higher relative humidities
[3] = Form E: about 125° C. for about five minutes; Form B: 175° C. for about five minutes

Structure (SMILES)	hygroscopicity [2]	conversion upon heating [3]	relative stability among polymorphs [1]	conversion at higher relative humidities [2]
Nc1cccc2c1CN(C1CCC(=O)NC1=O)C2=O (centres unmarked) [Form A, 3-(4-amino-1-oxo-1,3 dihydro-isoindol-2-yl)-piperidene-2,6-dione]	weakly or not hygroscopic		most thermodynamically stable anhydrous polymorph	
Nc1cccc2c1CN(C1CCC(=O)NC1=O)C2=O (centres unmarked) [Form B, 3-(4-amino-1-oxo-1,3 dihydro-isoindol-2-yl)-piperidene-2,6-dione]		can convert to Form F		
Nc1cccc2c1CN(C1CCC(=O)NC1=O)C2=O (centres unmarked) [Form C, 3-(4-amino-1-oxo-1,3 dihydro-isoindol-2-yl)-piperidene-2,6-dione]	not hygroscopic below about 85% RH			can convert to Form B at higher relative humidities

Second part, led by results:

hygroscopicity [2]	conversion upon heating [3]	Structure (SMILES)	relative stability among polymorphs [1]	conversion at higher relative humidities [2]
either weakly or not hygroscopic		Nc1cccc2c1CN(C1CCC(=O)NC1=O)C2=O (centres unmarked) [Form D, 3-(4-amino-1-oxo-1,3 dihydro-isoindol-2-yl)-piperidene-2,6-dione]		will typically convert to Form B
	can convert to Form B	Nc1cccc2c1CN(C1CCC(=O)NC1=O)C2=O (centres unmarked) [Form E, 3-(4-amino-1-oxo-1,3 dihydro-isoindol-2-yl)-piperidene-2,6-dione]		
